Experimental data from patent publication US10111865B2 (priority 2015, dated 2018).
Like-named read-outs stand apart in the source and are kept apart here.

How the values were obtained:
[1] = human, in vivo; for residual effect on Choice Reaction Time / residual effect on Critical Flicker Fusion: po
[2] = three-month efficacy study, insomnia; cited from earlier work
[3] = assay type: in vivo, human
Description: There was a washout of 4 days between each treatment period.
The study included healthy, male and female subjects between 18 and 45 years of age within 30% of ideal weight. The subjects in Part 1 of the study could be of either gender, but within Part 2 of the study there had to be at least 4 subjects of each gender.

[4] = Driving performance (real driving on the road) and cognitive/psychomotor test battery after evening or middle-of-the-night dosing (Example 3); assay type: in vivo, human; conditions: for effect on memory test, body sway, DSST or critical tracking: cognitive and psychomotor test battery before driving test; for effect on driving: driving test at 9 am
Description: The study participants included healthy, male and female subjects between 21 and 45 years of age, with a valid drivers license for at least 3 years.
Following a cognitive and psychomotor test battery, the driving test started at 9 am and lasted for one hour.

[5] = human, in vivo
[6] = Daytime performance after 5-hour sleep restriction, 4-night placebo-controlled study in healthy adults (Example 4); assay type: in vivo, human; conditions: 15 mg
Procedure: The study included a 2-night single-blind placebo run-in period, a 4-night double-blind treatment period during which sleep was restricted to 5 hours and a 2-night single-blind placebo run-out period. The study included healthy male and female volunteers 18 to <55 years of age.
2-night run-in period: All patients received placebo
2-night run-out period: All patients received placebo
The primary endpoints included observations based on the Multiple Sleep Latency Test (MSLT) and Slow Wave Sleep (SWS) assessment.

[7] = middle-of-the-night administration (4 am; gaboxadol 15 mg, zolpidem 10 mg)

CCN(CC)CCN1C(=O)CN=C(c2ccccc2F)c2cc(Cl)ccc21 [Flurazepam]
residual effect on Choice Reaction Time [1]: showed significant effect
residual effect on Critical Flicker Fusion [1]: showed significant effect

Oc1noc2c1CCNC2 [gaboxadol, 4,5,6,7-tetrahydroisoxazolo [5,4-c]pyridine-3-ol]
effects in sleep onset and sleep maintenance [2]: failed to show significant effects
serious adverse experiences ([3]; both parts of the study): no serious adverse experiences
tolerability ([3]; single dose intravenous 5 and 10 mg): generally well tolerated
tolerability ([3]; single dose oral 2.5 to 20 mg): generally well tolerated
residual effects on other measurements (MSLT, DSST, Tracking, Memory tests, Body Sway, Leeds Sleep Evaluation Questionnaire) [1]: did not show any signs of residual effects
residual effect on Choice Reaction Time [1]: did not show residual effect
residual effect on Critical Flicker Fusion [1]: did not show residual effect
effect on memory test, body sway, DSST or critical tracking [4]: no effect
tolerability ([4]; evening and middle-of-the-night dose 15 mg): well tolerated
effect on driving compared with blood alcohol ([4]; evening dose 15 mg): less than the effect observed at a 0.05% blood alcohol concentration
most frequent adverse events ([4]; evening treatment 15 mg): headache and somnolence
effect on driving [4, 7]: clinically relevant impairing effect
most frequent adverse events ([4]; middle-of-the-night treatment 15 mg): dizziness, nausea and somnolence
Oral clearance (CL/F) compared with clearance after intravenous administration [5]: of similar magnitude
AUC0-inf, dependence on dose ([5]; iv): increased with increasing dose
Cmax, dependence on dose ([5]; iv): increased with increasing dose
other parameters (CL, t1/2, Vss, fe, and CLR), dependence on dose ([5]; iv): independent of dose
steady-state volume of distribution (Vss) ([5]; iv): moderate
systemic clearance (CL) ([5]; iv): moderate
other parameters (CL/F, tmax, t1/2, fe, and CLR), dependence on dose ([5]; po): independent of dose
AUC0-inf, dependence on dose ([5]; po, 20 mg): increased with increasing dose
Cmax, dependence on dose ([5]; po, 20 mg): increased with increasing dose
MSLT, average difference to placebo (longer) ([6]; last two Sleep Restriction days, p=0.047, 1 sided): 2.01 min
Karolinska Sleepiness Score (KSS), average difference to placebo (less) ([6]; last two Sleep Restriction days, p=0.058, 1 sided, LDA model): 0.68
SWS, average difference to placebo (longer) ([6]; last two Sleep Restriction nights, p<0.001, 1 sided): 20.53 min
biophysiological measures of stress (heart rate variability, cortisol levels, catecholamine levels, body temperature) vs placebo ([6]; sleep restriction): no differences
neurocognitive battery effect sizes (daytime performance) ([6]; sleep restriction): no strong evidence that gaboxadol improves daytime performance

Cc1ccc(-c2nc3ccc(C)cn3c2CC(=O)N(C)C)cc1 [zolpidem]
effect on driving [4, 7]: numerically greater effect

CN1CCN(C(=O)OC2c3nccnc3C(=O)N2c2ccc(Cl)cn2)CC1 (centres unmarked) [zopiclone]
effect on memory test, body sway, DSST or critical tracking [4]: had effect on several of these tests
effect on driving ([4]; evening dose (gaboxadol 15 mg, zopiclone 7.5 mg)): numerically greater effect
